Data taken from US9737525B2, “Small molecule activators of NRF2 pathway” (The General Hospital Corporation, priority 2013, dated 2017).
Where a name gives a salt, the structure may show the parent alone.

Assays:
[1] = biological target: human recombinant SIRT2 deacetylase (Homo sapiens (Human), UniProt Q8IXJ6); assay: Sirtuin biochemical deacetylation assay, SIRT2
Protocol: Modulation of sirtuin activity by compounds was assessed using the Flour de Lys fluorescent biochemical assay in a 96-well format as described (Outeiro et al., 2007). The deacetylation reaction was performed at 37° C. for an hour in the presence of human recombinant enzymes: SIRT1 (BioMol-SE-239) 1 unit/per reaction, SIRT2 (BioMol-SE-251) 5 units/per reaction, or SIRT3 (BioMol-SE-270) 5 units/per reaction, compound of interest, standard buffer, 50 μM substrate, and 500 μM NAD^+ according to the manufacturer's protocol. […]

NQO1 = assay: Quantitative NQO1 inducer bioassay in Hepa1c1c7 cells; type: cell-based, murine; conditions: for EC (2-fold NQO1 activity): Mus musculus, Hepa-1c1c7, Table 3, Concentration which Doubles the specific activity of NQO1, read-out: NQD1 CD; for EC (2-fold NQO1 activity) / CD value (Concentration which Doubles the specific activity of NQO1): 48 hr exposure; for Effect of GSH pre-incubation on NQO1 inducer potency: 1 mM GSH at 37° C. for 30 min before cell treatment; for CD value (Concentration which Doubles the specific activity of NQO1): Hepa1c1c7 cells
Protocol: Cells grown in 96-well plates were exposed to serial dilutions of each compound for 48 hr, and the NQO1 enzyme activity was determined in cell lysates. Results are shown as average values of 8 replicate wells. The standard deviation in each case was less than 5%.
Next, using a quantitative NQO1 inducer bioassay in murine Hepa1c1c7 cells and the CD value (Concentration which Doubles the specific activity of NQO1) as a measure of potency (see Table 2), the activities of the MIND4 analogs were tested and ranked.
Inducer potency was quantified by use of the NQO1 bioassay in Hepa1c1c7 cells as described [Prochaska, 1988]. To examine the effect of GSH on inducer potency, compounds were incubated in cell culture medium containing 1 mM GSH at 37° C. for 30 min before cell treatment.

[2] = system: NRF2-responsive proteins NQO1 and GCLM; assay: Induction of NQO1 and GCLM proteins in differentiated ST14A cells (immunoblotting); type: cell-based, rat; conditions: differentiated HD mutant and wild type ST14A cells, 24 hours
Protocol: (§1) To assess protein levels, cell extracts were prepared from cells washed with PBS and lysed with buffer containing 2% SDS, Complete EDTA-free Protease Inhibitor Cocktail (Roche) and 1 mM phenylmethylsulfonyl fluoride. To prepare brain extracts for analysis, frozen mouse cortical tissues were homogenized in PBS containing protease inhibitors with an Kontes Pellet Pestle (Kimble/Kontes). They were later sonicated and lysed overnight at 4° C. in 2× volume of lysis buffer containing 2% SDS and protease inhibitors. Protein concentrations in ST14A cell extracts and homogenized cortical tissues were evaluated using a BCA analysis kit and normalized. Samples were prepared in a SDS buffer containing DTT and separated on bis-acrylamide protein gels via electrophoresis and transferred onto a 0.2 μm PVDF membrane). Membranes were probed for NQO1 (Sigma N5288, 1:1,000), GCLM, (Abcam ab126704, 1:800), SIRT2 (Sigma S8447, 1:2,500), histone H3 (Cell Signaling 4499, 1:2,000), acetylated H3 (K56) (Millipore 04-1135, 1:500), TNFα (Abcam ab1793, 1:1,500), GADPH (Millipore MAB374, 1:10,000), actin (Sigma A2066, 1:1250), α-tubulin (Sigma T6074, 1:20,000), and acetylated α-tubulin (Sigma T6793, 1:2,500) overnight in 5% milk in PBST at 4° C. on a rocker. Membranes were thrice washed in PBST for 15 min on a shaker and incubated in either an anti-rabbit-HRP (Bio-Rad 170-5046, 1:10,000) or anti-mouse-HRP (Sigma A3682, 1:4,000) secondary solution as appropriate in 3% milk in PBST for 1 hr at room temperature on a rocker. After four washes of 15 min in PBST on a shaker, blots were visualized using SuperSignal West Pico Chemiluminescent Substrate (Pierce 34080) or SuperSignal West Dura Extended Duration Substrate (Thermo 34075) and exposed on Scientific Imaging Film (Kodak 864 6770).
Compound bioactivity was tested in the rat embryonic striatal cell lines ST14A, which stably express either a mutant expanded repeat (128Q) or wild type (26Q) 546 amino acid huntingtin (HTT) fragment (a generous gift of E. Cattaneo) (Ehrlich et al., 2001) ST14A cells were propagated at 33° C. in the presence of serum. To induce neuronal differentiation, cells were serum deprived and cultured at 37° C. in the presence of N2 supplement. Cells were treated with compounds concurrently with induction of neuronal differentiation for 24 hours, as described (Quinti et al., 2010).
The NRF2 activation properties of further MIND4 structural analogs with variable potencies of SIRT2 inhibition were tested as described previously (see Table 1) Changes in expression of the canonical NRF2-responsive proteins NQO1 and GCLM, the transcription of which was induced by MIND4, was selected as a readout of pathway activation. Protein levels of NQO1 and GCLM were examined by immunoblotting in compound treated mutant HD and wild-type ST14A cells. […] This hypothesis was tested using a second panel of MIND4 analogs (see Table 3).

NRF2/KEAP1 in MEFs = assay: NQO1 and NRF2 levels in mouse embryonic fibroblasts (MEFs), western blot; type: cell-based; conditions: wild-type MEFs, 5 hr exposure
Protocol: Mouse embryonic fibroblasts (MEFs) from wild-type (WT), NRF2-knockout (NRF2-KO) or KEAP1-knockout (KEAP1-KO) mice, were cultured in plastic dishes (Invitrogen) coated for 30 min with 0.1% (w/v) gelatin before use. The cell culture medium was Iscoves Modified Dulbecco's Medium (with L-glutamine) supplemented with human recombinant epidermal growth factor (10 ng/mL), 1× insulin/transferrin/selenium, and 10% (v/v) heat-inactivated FBS, all from Invitrogen. Cells were maintained at 5% CO2 in air at 37° C. For experiments, cells (250,000 per well) were grown for 24 hr on 6-well plates, and then treated with solvent control (0.1% DMSO, v/v) or compounds for either 5 hr or 24 hr. For western blot analysis, cells were washed twice with ice-cold phosphate buffered saline (PBS) and lysed in 150 μl of RIPA buffer (50 mM Tris-Cl pH 7.5, 150 mM NaCl, 0.5% sodium deoxycholate, 1% NP-40, 0.1% SDS and 1 mM EDTA), containing 1 protease inhibitor cocktail tablet (Roche) per 10 ml of buffer. Cell debris were removed by centrifugation at 16,300×g for […] at 4° C., and protein concentrations were determined by the BCA assay (Thermo). Proteins were resolved by SDS/PAGE, transferred to immobilon-P membranes, and probed with specific antibodies against NQO1 (1:1000) or NRF2 (1:1000). Equal loading was confirmed by probing the blots with an antibody against β-actin (mouse monoclonal, 1:10000), from Sigma, Dorset, United Kingdom.
For nuclear-cytoplasmic separation, WT MEFs (500,000 per dish) were grown for 24 hr on 6-cm plates, and then treated with solvent control (0.1% DMSO, v/v) or 0.5 μM MIND4-17. At the end of each treatment time, cells were placed on ice and washed twice with ice-cold PBS and subsequently lysed in buffer A [10 mM KCl, 5 mM MgCl2, 50 mM Tris-HCl (pH 7.5), 0.5% Nonidet P-40 (Roche), 1 mM dithioretitol (DTT) (Sigma), containing one protease inhibitor tablet and one phosphatase inhibitor tablet (both from Roche) per each 10 ml of buffer]. The lysates were subjected to centrifugation (Spectrafuge 24D, Labnet) at 1,000×g for 5 min at 4° C. The supernatant (cytoplasmic fraction) was transferred to a fresh Eppendorf tube. The pellet (nuclear fraction) was washed three times in buffer A before being dissolved in buffer B [2% SDS, 150 mM NaCl, 65 mM Tris-HCl (pH 8.0)] and sonicated for 30 sec. Finally, the lysates were subjected to western blot analysis. The blots were probed with antibodies against GAPDH (rabbit polyclonal, 1:5000) and Lamin A/C (rabbit polyclonal, 1:1000, Gene Tex, Calif., United States of America) to confirm fraction purity and equal protein loading.

[3] = system: α-tubulin K40 and histone H3 acetylation; assay: Acetylation of SIRT2 substrates in wild type primary cortical neurons; type: cell-based, mouse; parameters: α-Tubulin acetylation: dose or concentration left out as unconfirmed; conditions: primary neurons
Protocol: as §1
Based upon the robust neuroprotection observed in HD model systems expressing both mutant HTT fragments and full-length mutant HTT, verification of the bioactivity of MIND4 as SIRT2 inhibitor in primary neurons was sought. […]

Sequence of human recombinant SIRT2 deacetylase (Q8IXJ6 whole entry): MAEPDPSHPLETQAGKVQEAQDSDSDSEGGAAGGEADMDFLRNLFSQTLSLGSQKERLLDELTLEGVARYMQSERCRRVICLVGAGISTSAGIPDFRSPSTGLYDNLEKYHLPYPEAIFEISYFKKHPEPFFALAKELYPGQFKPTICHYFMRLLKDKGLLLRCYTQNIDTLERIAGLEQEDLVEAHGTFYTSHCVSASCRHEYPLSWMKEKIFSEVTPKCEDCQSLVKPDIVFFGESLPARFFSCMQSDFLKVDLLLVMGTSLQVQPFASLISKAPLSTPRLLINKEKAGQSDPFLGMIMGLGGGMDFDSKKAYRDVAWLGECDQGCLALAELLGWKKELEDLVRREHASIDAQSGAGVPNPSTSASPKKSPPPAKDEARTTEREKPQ

Row | Compound | IC50 ([1]; Table 1) | IC50 ([1]; Table 3) | EC (2-fold NQO1 activity) (NQO1) | also measured
1 | Clc1ccc(-n2c(COc3cccc4ccccc34)nnc2SCc2ccccc2)cc1 [MIND4-2] | 12 µM | – | – | –
2 | c1ccc(CSc2nnc(COc3cccc4ccccc34)n2-c2ccccc2)cc1 [MIND4-11] | 4.5 µM | 4.5 µM | > 10 µM | –
3 | c1ccc(CSc2nnc(COc3cccc4cccnc34)n2-c2ccccc2)cc1 [MIND4-12] | 9 µM | – | – | –
4 | O=[N+]([O-])c1ccc(Sc2nnc(COc3ccccc3)[nH]2)nc1 [MIND4-17-3] | – | > 50 µM | 7.5 µM | –
5 | O=[N+]([O-])c1ccc(Sc2nnc(Cc3ccccc3)n2-c2ccccc2)nc1 [MIND4-17-15] | – | > 50 µM | 0.3 µM | –
6 | O=[N+]([O-])c1ccc(Sc2nnc(-c3ccc(Cl)cc3)n2-c2ccccc2)nc1 [MIND4-17-33] | – | 7.5 µM | 0.3 µM | Effect of GSH pre-incubation on NQO1 inducer potency (NQO1): significantly affected by pre-incubation with GSH; CD value (Concentration which Doubles the specific activity of NQO1) (NQO1): 0.3 µM; Induction of NRF2-responsive proteins NQO1 and GCLM [2]: potent induction of NQO1 protein
7 | COC(=O)/C=C/C(=O)OC [dimethyl fumarate, reference compound] | – | – | – | CD value (Concentration which Doubles the specific activity of NQO1) (NQO1): 9 µM; Induction of NRF2-responsive proteins NQO1 and GCLM [2]: dose-dependent induction of NQO1 protein
8 | C[S+]([O-])CCCCN=C=S (stereo not drawn) [sulforaphane, reference compound] | – | – | – | CD value (Concentration which Doubles the specific activity of NQO1) (NQO1): 0.18 µM; Accumulation of total NRF2 protein (NRF2/KEAP1 in MEFs): readily detectable
9 | O=C(CCCCCCC(=O)Nc1ccc([C@H]2O[C@@H](CSc3nc(-c4ccccc4)c(-c4ccccc4)o3)C[C@@H](c3ccc(CO)cc3)O2)cc1)NO [tubacin, reference compound] | – | – | – | α-Tubulin acetylation [3]: significantly increased α-tubulin acetylation

Further lines, with some results ahead:

Row | IC50 ([1]; Table 1) | IC50 ([1]; Table 3) | Compound | EC (2-fold NQO1 activity) (NQO1) | also measured
10 | – | 0.75 µM | O=[N+]([O-])c1cnc(Sc2nnc(-c3ccc(Cl)cc3)n2-c2ccccc2)c(Br)c1 [MIND4-17-56] | 2.5 µM | Effect of GSH pre-incubation on NQO1 inducer potency (NQO1): much more modest; CD value (Concentration which Doubles the specific activity of NQO1) (NQO1): 2.5 µM; Induction of NRF2-responsive proteins NQO1 and GCLM [2]: lower potency in its ability to induce NQO1
11 | 7 µM | – | c1ccc(CSc2nnc(COc3ccccc3)n2-c2ccccc2)cc1 [MIND4-19] | – | –
12 | 5 µM | – | Brc1cccc(CSc2nnc(COc3ccccc3)n2-c2ccccc2)c1 [MIND4-20] | – | –
13 | 10 µM | 10 µM | O=[N+]([O-])c1ccc(CSc2nnc(COc3ccccc3)n2-c2ccccc2)cc1 [MIND4-21] | – | –
14 | 6 µM | – | c1ccc(CSc2nnc(COc3cccc4ccccc34)n2Cc2ccccc2)cc1 [MIND4-22] | – | –
15 | 9 µM | – | COc1ccc(CSc2nnc(COc3cccc4ccccc34)n2Cc2ccccc2)cc1 [MIND4-23] | – | –
16 | – | 7.5 µM | O=[N+]([O-])c1ccc(Sc2nnc(-c3ccccc3)n2-c2ccccc2)c2ncccc12 [MIND4A] | 1 µM | Effect of GSH pre-incubation on NQO1 inducer potency (NQO1): much more modest; CD value (Concentration which Doubles the specific activity of NQO1) (NQO1): 1 µM; Induction of NRF2-responsive proteins NQO1 and GCLM [2]: higher potency induction; SIRT2 inhibition ([1]; dose-response): lower potency of SIRT2 inhibition
17 | – | > 50 µM | Cn1cnnc1Sc1ccc([N+](=O)[O-])c2cccnc12 [MIND4B] | 2 µM | –
18 | – | > 20 µM | O=[N+]([O-])c1ccc(Sc2nnc(COc3ccccc3)n2-c2ccccc2)c2cccnc12 [MIND4C] | 5 µM | Induction of NRF2-responsive proteins NQO1 and GCLM [2]: weaker activation; Accumulation of total NRF2 protein (NRF2/KEAP1 in MEFs): to much lesser extent
